Source: patent US20240101573A1, “MACROCYCLIC K-RAS G12C INHIBITOR, PREPARATION METHOD THEREFOR AND USE THEREOF” (Abbisko Therapeutics Co., Ltd., priority 2020, published 2024)

Experiments:
H358 = assay: Anti-proliferation 2D CTG test (H358); format: cell-based; conditions: H358 cells, 1500 cells/well, 5 days incubation with compound, CTG readout
Protocol: (§1) When the cell confluency was 80%, the cells were isolated with 0.25% trypsin. The isolated cells were resuspended in 5 mL of fresh cell culture medium and centrifuged to collect the cells. The number of cells were counted at the same time. Then, the cells were suspended in a culture medium at a moderate concentration. The cells were placed into a 96-well plate with 1500 cells/well for H358 and 500 cells/well for MIAPACA-2. The 96-well plate was placed in an incubator at 37° C. and incubated overnight.
(§2) 2) Day 1: processing of compound
(§3) A 2 mM stock solution was serially diluted at 10 points at a ratio of 1:3. 5× culture medium containing the compound was transferred to the corresponding wells of 96 wells. The final peak concentration of the compound was […], and the final concentration of DMSO was 0.5%. The 96-well plate was placed in the incubator at 37° C. and incubated for 5 days.
(§4) 3) Baseline reading. 4) Day 6: reading of signals
(§5) A detection reagent (CTG) was added at 50 μL/well, and the signals were read in an Envision instrument.
(§6) The percentage of inhibition ([…]) at each compound concentration was calculated based on the signals from the HPE and ZPE control wells contained in each assay plate and the fluorescence signals from individual compound wells. The inhibition rate in the ZPE control wells containing the enzyme and substrate was 0%, and the inhibition rate in the HPE control wells only containing the substrate was […]. By testing the compound in terms of numeric concentration and inhibition percentage, the compound concentration required for […] inhibition (IC50) was determined using a four-parameter logarithmic dose-response equation. The endpoint value (IC50) of the reference compound was evaluated in each experiment as a quality control measure. If the endpoint value was within three times the expected value, the experiment was considered acceptable.

MIA PaCa-2 = assay: Anti-proliferation 2D CTG test (MIA PaCa-2); format: cell-based; conditions: MIAPACA-2 cells, 500 cells/well, 5 days incubation with compound, CTG readout
Protocol: as §1, §2, §3, §4, §5, §6

[1] = Homo sapiens, MIA PaCa-2, 120 h

Row | Compound | IC50 (H358) | IC50 (MIA PaCa-2) | IC50 (H358; Homo sapiens, NCI-H358, 120 h) | IC50 (MIA PaCa-2; [1])
1 | 2^4-((S)-4-acryloyl-2-methylpiperazin-1-yl)-2^6,3^6-difluoro-7-hydroxy-1^2-isopropyl-2^1,2^2-dihydro-4-oxa-2(1,7)-pyrido[2,3-d]pyrimidina-1(3,4)-pyridina-3(1,2)-benzocycloheptane-2^2-one [Example 5] | 19 nM | 20 nM |  | 
2 | 11-((S)-4-acryloyl-2-methylpiperazin-1-yl)-2-((dimethylamino)methyl)-15,21-difluoro-7-isopropyl-3a,20a-dihydro-9H,20H-12,14-(epiethane[1,2]diylidene)benzo[b][1,3]dioxazolo[4,5-j]pyri do[3,4-h]pyrimido[6,1-f][1]oxa[5,7]diazacyclododecin-9-one [Example 64] | 3 nM | 1 nM |  | 
3 | C=CC(=O)N1CCN(c2nc(=O)n3c4nc(c(F)cc24)-c2c(F)cccc2OCC(O)C(O)c2ccnc(C(C)C)c2-3)[C@@H](C)C1 (stereo partly drawn) [Example 1, 2^4-((S)-4-acryloyl-2-methylpiperazin-1-yl)-2^6,3^6-difluoro-6,7-dihydroxy-1^2-isopropyl-2^1,2^2-dihydro-4-oxa-2(1,7)-pyrido[2,3-d]pyrimidina-1(3,4)-pyridina-3(1,2)-benzocycloheptane-2^2-one] | 13 nM | 10 nM |  | 
4 | C=CC(=O)N1CCN(c2nc(=O)n3c4nc(c(F)cc24)-c2c(F)cccc2OCC(O)C(O)c2ccnc(C(C)C)c2-3)[C@@H](C)C1 (stereo partly drawn) [Example 1-R, (R)-2^4-((S)-4-acryloyl-2-methylpiperazin-1-yl)-2^6,3^6-difluoro-6,7-dihydroxy-1^2-isopropyl-2^1,2^2-dihydro-4-oxa-2(1,7)-pyrido[2,3-d]pyrimidina-1(3,4)-pyridina-3(1,2)-benzocycloheptane-2^2-one] | 9 nM | 12 nM |  | 
5 | C=CC(=O)N1CCN(c2nc(=O)n3c4nc(c(F)cc24)-c2c(F)cccc2OCC(O)C(O)c2ccnc(C(C)C)c2-3)[C@@H](C)C1 (stereo partly drawn) [Example 1-S, (S)-2^4-((S)-4-acryloyl-2-methylpiperazin-1-yl)-2^6,3^6-difluoro-6,7-dihydroxy-1^2-isopropyl-2^1,2^2-dihydro-4-oxa-2(1,7)-pyrido[2,3-d]pyrimidina-1(3,4)-pyridina-3(1,2)-benzocycloheptane-2^2-one] | 931 nM | 100 nM |  | 
6 | C=CC(=O)N1C[C@H](C)N(c2nc(=O)n3c4nc(c(F)cc24)-c2c(F)cccc2OCC(O)C(O)c2ccnc(C(C)C)c2-3)C[C@H]1C (stereo partly drawn) [Example 2, (R)-2^4-((2S,5R)-4-acryloyl-2,5-dimethylpiperazin-1-yl)-2^6,3^6-difluoro-6,7-dihydroxy-1^2-isopropyl-2^1,2^2-dihydro-4-oxa-2(1,7)-pyrido[2,3-d]pyrimidina-1(3,4)-pyridina-3(1,2)-benzocycloheptane-2^2-one] | 2 nM | 1 nM |  | 
7 | C=CC(=O)N1C[C@H](C)N(c2nc(=O)n3c4nc(c(F)cc24)-c2c(F)cccc2OCC(O)C(O)c2ccnc(C(C)C)c2-3)C[C@H]1C (stereo partly drawn) [Example 3, (S)-2^4-((2S,5R)-4-acryloyl-2,5-dimethylpiperazin-1-yl)-2^6,3^6-difluoro-6,7-dihydroxy-1^2-isopropyl-2^1,2^2-dihydro-4-oxa-2(1,7)-pyrido[2,3-d]pyrimidina-1(3,4)-pyridina-3(1,2)-benzocycloheptane-2^2-one] | 1250 nM | 400 nM |  | 
8 | C=CC(=O)N1CCN(c2nc(=O)n3c4nc(c(F)cc24)-c2c(F)cccc2OCC(O)C(=O)c2ccnc(C(C)C)c2-3)[C@@H](C)C1 (stereo partly drawn) [Example 4, 2^4-((S)-4-acryloyl-2-methylpiperazin-1-yl)-2^6,3^6-difluoro-6-hydroxy-1^2-isopropyl-2^1,2^2-dihydro-4-oxa-2(1,7)-pyrido[2,3-d]primidina-1(3,4)-pyridina-3(1,2)-benzocycloheptane-2^2,7-dione] |  |  | 73 nM | 83 nM
9 | C=CC(=O)N1CCN(c2nc(=O)n3c4nc(c(F)cc24)-c2c(F)cccc2OCC(O)C(OC(=O)CC)c2ccnc(C(C)C)c2-3)[C@@H](C)C1 (stereo partly drawn) [Example 6, 2^4-((S)-4-acryloyl-2-methylpiperazin-1-yl)-2^6,3^6-difluoro-6-hydroxy-1^2-isopropyl-2^2-oxo-2^1,2^2-dihydro-4-oxa-2(1,7)-pyrido[2,3-d]pyrimidina-1(3,4)-pyridina-3(1,2)-benzocycloheptane-7-yl propionate] |  |  | 10 nM | 10 nM
10 | C=CC(=O)N1CCN(c2nc(=O)n3c4nc(c(F)cc24)-c2c(F)cccc2OCC(O)C(OC(C)=O)c2ccnc(C(C)C)c2-3)[C@@H](C)C1 (stereo partly drawn) [Example 7, 2^4-((S)-4-acryloyl-2-methylpiperazin-1-yl)-2^6,3^6-difluoro-6-hydroxy-1^2-isopropyl-2^2-oxo-2^1,2^2-dihydro-4-oxa-2(1,7)-pyrido[2,3-d]pyrimidina-1(3,4)-pyridina-3(1,2)-benzocycloheptane-7-yl acetate] |  |  | 15 nM | 10 nM
11 | C=CC(=O)N1C[C@H](C)N(c2nc(=O)n3c4nc(c(F)cc24)-c2c(F)cccc2OCC(O)C(OC(C)=O)c2ccnc(C(C)C)c2-3)C[C@H]1C (stereo partly drawn) [Example 8, 2^4-((2S,5R)-4-acryloyl-2,5-dimethylpiperazin-1-yl)-2^6,3^6-difluoro-6-hydroxy-1^2-isopropyl-2^2-oxo-2^1,2^2-dihydro-4-oxa-2(1,7)-pyrido[2,3-d]pyrimidina-1(3,4)-pyridina-3(1,2)-benzocycloheptane-7-yl acetate] |  |  | 9 nM | 3 nM
12 | C=CC(=O)N1CCN(c2nc(=O)n3c4nc(c(F)cc24)-c2c(F)cccc2OCC(O)C(OC(=O)C(C)C)c2ccnc(C(C)C)c2-3)[C@@H](C)C1 (stereo partly drawn) [Example 9, 2^4-((S)-4-acryloyl-2-methylpiperazin-1-yl)-2^6,3^6-difluoro-6-hydroxy-1^2-isopropyl-2^2-oxo-2^1,2^2-dihydro-4-oxa-2(1,7)-pyrido[2,3-d]pyrimidina-1(3,4)-pyridina-3(1,2)-benzocycloheptane-7-yl isobutyrate] |  |  | 21 nM | 13 nM

Other lines, results leading:

Row | IC50 (H358) | IC50 (MIA PaCa-2) | IC50 (H358; Homo sapiens, NCI-H358, 120 h) | IC50 (MIA PaCa-2; [1]) | Compound
13 |  |  | 5 nM | 4 nM | C=CC(=O)N1CCN(c2nc(=O)n3c4nc(c(F)cc24)-c2c(F)cccc2OCC(O)C(OC(=O)C2CC2)c2ccnc(C(C)C)c2-3)[C@@H](C)C1 (stereo partly drawn) [Example 10, 2^4-((S)-4-acryloyl-2-methylpiperazin-1-yl)-2^6,3^6-difluoro-6-hydroxy-1^2-isopropyl-2^2-oxo-2^1,2^2-dihydro-4-oxa-2(1,7)-pyrido[2,3-d]pyrimidina-1(3,4)-pyridina-3(1,2)-benzocycloheptane-7-yl cyclopropanecarboxylate]
14 |  |  | 26 nM | 21 nM | C=CC(=O)N1CCN(c2nc(=O)n3c4nc(c(F)cc24)-c2c(F)cccc2OCC(O)C(OC(=O)OC(C)(C)C)c2ccnc(C(C)C)c2-3)[C@@H](C)C1 (stereo partly drawn) [Example 11, 2^4-((S)-4-acryloyl-2-methylpiperazin-1-yl)-2^6,3^6-difluoro-6-hydroxy-1^2-isopropyl-2^2-oxo-2^1,2^2-dihydro-4-oxa-2(1,7)-pyrido[2,3-d]pyrimidina-1(3,4)-pyridina-3(1,2)-benzocycloheptane-7-yl tert-butylcarbonate]
15 |  |  | 26 nM | 26 nM | C=CC(=O)N1CCN(c2nc(=O)n3c4nc(c(F)cc24)-c2c(F)cccc2OCC(OC(=O)CC)C(OC(=O)CC)c2ccnc(C(C)C)c2-3)[C@@H](C)C1 (stereo partly drawn) [Example 12, 2^4-((S)-4-acryloyl-2-methylpiperazin-1-yl)-2^6,3^6-difluoro-1^2-isopropyl-2^2-oxo-2^1,2^2-dihydro-4-oxa-2(1,7)-pyrido[2,3-d]pyrimidina-1(3,4)-pyridina-3(1,2)-benzocycloheptane-6,7-diyl dipropionate]
16 | 668 nM |  |  |  | C=CC(=O)N1CCN(c2nc(=O)n3c4nc(c(F)cc24)-c2c(ccc(Cl)c2F)OCC(O)C(OCC)c2ccnc(C(C)C)c2-3)[C@@H](C)C1 (stereo partly drawn) [Example 73, (S)-2^4-((S)-4-acryloyl-2-methylpiperazin-1-yl)-3^5-chloro-7-ethoxy-2^6,3^6-difluoro-6-hydroxy-1^2-isopropyl-2^1,2^2-dihydro-4-oxa-2(1,7)-pyrido[2,3-d]pyrimidina-1(3,4)-pyridina-3(1,2)-benzocycloheptane-2^2-one]
17 | 523 nM |  |  |  | C=CC(=O)N1C[C@H](C)N(c2nc(=O)n3c4nc(c(F)cc24)-c2c(ccc(Cl)c2F)OCC(O)C(OCC)c2ccnc(C(C)C)c2-3)C[C@H]1C (stereo partly drawn) [Example 77, (S)-(S)-2^4-((2S,5R)-4-acryloyl-2,5-dimethylpiperazin-1-yl)-3^5-chloro-7-ethoxy-2^6,3^6-difluoro-6-hydroxy-1^2-isopropyl-2^1,2^2-dihydro-4-oxa-2(1,7)-pyrido[2,3-d]pyrimidina-1(3,4)-pyridina-3(1,2)-benzocycloheptane-2^2-one]
